According to patent publication US6048896A, “4-phenyl-4-oxo-2-butenoic acid derivatives with kynurenine-3-hydroxylase inhibiting activity” (Pharmacia & Upjohn S.p.A., priority 1995, dated 2000):

What was measured:
[1] = system: N-methyl-D-aspartate (NMDA) receptor; conditions: cited from earlier work
CNS = conditions: cited from earlier work
neuronal cell cultures = conditions: relatively low concentrations, prolonged period of time or in combination with glutamate; cited from earlier work
kynurenine-3-hydroxylase [2] = target: T1, kynurenine-3-hydroxylase (Rattus norvegicus, UniProt O88867); experiment: Kynurenine-3-hydroxylase Assay in the Rat Liver; assay type: biochemical; design: Rat liver mitochondrial extract was used as enzymatic preparation for this assay; from tissue; host or cells: rat liver mitochondrial extract; conditions: rat liver mitochondrial extract, 0.025 mM L-kynurenine, 37° C., 30 min, pH 8.1; read-out: Enzyme Inhibition (Liver) IC50
Procedure: Kynurenine-3-hydroxylase Assay in the Rat Liver
The assay for kynurenine 3-hydroxylase was based on the enzymatic synthesis of tritiated water during the hydroxylation reaction. Radiolabeled water was quantified following selective adsorption of the isotopic substrate and its metabolite with activated charcoal.
Rat liver mitochondrial extract was used as enzymatic preparation for this assay.
The assay for kynurenine 3-hydroxylase activity was carried out at 37° C. for a time of 30 min. The reaction mixture of a total volume of […] was constituted of […] of suspended extract, 100 mM Tris/Cl^- buffer pH 8.1, 10 mM EDTA, 100 mM KCl, 0.8 mM NADPH, 0.025 mM L-kynurenine, […] L-(3,5-^3 H)Kynurenine (10 Ci/mmol) and […] of different concentration of inhibitor solutions. After the incubation the reaction was terminated by the addition of 1 mL of 7.5% (w/v) activated charcoal, vortexed and centrifugated for 7 min.
A […] aliquot of supernatant was counted by scintillation spectroscopy in 5 ml of liquid scintillation.

kynurenine-3-hydroxylase [3] = target: T1, kynurenine-3-hydroxylase; experiment: Kynurenine-3-hydroxylase Assay in the Rat Brain; assay type: biochemical; design: from tissue; conditions: rat brain homogenate, 50 μM L-kynurenine, 60 min incubation, pH 7.5; read-out: Enzyme Inhibition (Brain) IC50
Procedure: Kynurenine-3-hydroxylase Assay in the Rat Brain
Brain was homogenized in ice-cold 0.32 M sucrose and centrifuged at 12000×g for 30 min at 4° C. The pellet was washed three times with 0.32 M sucrose by centrifugation and suspended in 0.14 M KCl in 20 mM K-phosphate buffer at pH 7 (1 g tissue in 2 ml buffer).
The reaction mixture contained: 75 μl of suspended homogenate; 100 μl of substrate solution containing 50 mM K-phosphate buffer pH 7.5, 2 mM MgCl2, 0.4 mM NADPH, 50 μM L-kynurenine (final concentration), and 25 μl of different concentrations of inhibitor solutions. The reaction was stopped by addition of 200 μl of 1 M HClO4 after 60 min incubation. L-3-hydroxykynurenine formed was quantified by HPLC with coulometric detection at a working voltage of +0.2 V. The column was a 10 cm C18 reversed phase (3 μm. The mobile phase consisted of 950 ml distilled water, 20 ml acetonitrile, 9 ml triethylamine, 5.9 ml phosphoric acid, 100 mg sodium EDTA and 1.5 g heptanesulfonic acid. The flow rate was 1 ml/min.

[4] = system: ionotropic excitatory aminoacid receptors; conditions: preferentially at glycine co-agonist site of the NMDA receptor; cited from earlier work

T1 sequence (O88867 whole entry): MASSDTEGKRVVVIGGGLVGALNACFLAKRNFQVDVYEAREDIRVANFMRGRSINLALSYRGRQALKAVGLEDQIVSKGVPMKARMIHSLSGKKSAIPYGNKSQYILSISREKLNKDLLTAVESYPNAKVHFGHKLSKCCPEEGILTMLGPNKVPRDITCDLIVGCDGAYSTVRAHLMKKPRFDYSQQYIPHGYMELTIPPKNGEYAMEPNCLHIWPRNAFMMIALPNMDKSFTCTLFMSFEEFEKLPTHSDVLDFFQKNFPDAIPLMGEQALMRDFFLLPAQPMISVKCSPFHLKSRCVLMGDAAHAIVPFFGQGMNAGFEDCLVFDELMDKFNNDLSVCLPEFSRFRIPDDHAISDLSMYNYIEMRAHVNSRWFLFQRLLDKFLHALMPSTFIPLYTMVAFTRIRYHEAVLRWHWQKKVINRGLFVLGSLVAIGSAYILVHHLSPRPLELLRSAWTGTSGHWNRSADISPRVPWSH

Structure (SMILES): O=C(O)c1cccnc1C(=O)O [QUIN, quinolinic acid]
- activity at NMDA receptor [1]: highly selective agonist
- in vivo convulsions and lesions (CNS; in vivo): produce convulsions and axon sparing lesions
- effect when injected in the CNS (CNS): neurotoxin
- neurotoxicity in neuronal cell cultures (neuronal cell cultures): neurotoxic

Structure (SMILES): CC(=CC(=O)O)C(=O)c1ccc(Cl)c(Cl)c1 [PNU 161213, 3-methyl-4-(3',4'-dichlorophenyl)-4-oxo-2-butenoic acid]
- IC50 (kynurenine-3-hydroxylase [2]): 26.2 µM

Structure (SMILES): O=C(O)/C=C/C(=O)c1ccc(F)c(F)c1 [PNU 157961, (E)-4-(3',4'-difluorophenyl)-4-oxo-2-butenoic acid]
- IC50 (kynurenine-3-hydroxylase [3]): 1.1 µM
- IC50 (kynurenine-3-hydroxylase [2]): 21.1 µM

Structure (SMILES): O=C(O)/C(O)=C\C(=O)c1ccc(F)c(F)c1 [PNU 161219, (E)-2-hydroxy-4-(3',4'-difluorophenyl)-4-oxo-2-butenoic acid]
- IC50 (kynurenine-3-hydroxylase [3]): 0.44 µM
- IC50 (kynurenine-3-hydroxylase [2]): 1.2 µM

Structure (SMILES): O=C(O)/C=C/C(=O)c1cccc(F)c1 [PNU 158388, (E)-4-(3'-fluorophenyl)-4-oxo-2-butenoic acid]
- IC50 (kynurenine-3-hydroxylase [3]): 21.8 µM
- IC50 (kynurenine-3-hydroxylase [2]): 38.6 µM

Structure (SMILES): CCOC(=O)/C(O)=C\C(=O)c1ccc(Cl)c(Cl)c1 [PNU 161215, Ethyl-(E)-2-hydroxy-4-(3',4'-dichlorophenyl)-4-oxo-2-butenoate]
- IC50 (kynurenine-3-hydroxylase [3]): 2.01 µM
- IC50 (kynurenine-3-hydroxylase [2]): 1.9 µM

Structure (SMILES): C/C(=C\C(=O)c1ccc(Cl)c(Cl)c1)C(=O)O [PNU 158785, (E)-2-methyl-4-(3',4'-dichlorophenyl)-4-oxo-2-butenoic acid]
- IC50 (kynurenine-3-hydroxylase [3]): 3.4 µM
- IC50 (kynurenine-3-hydroxylase [2]): 23.5 µM

Structure (SMILES): O=C(O)/C(O)=C\C(=O)c1cccc(F)c1 [PNU 161217, (E)-2-hydroxy-4-(3'-fluorophenyl)-4-oxo-2-butenoic acid]
- IC50 (kynurenine-3-hydroxylase [3]): 0.97 µM
- IC50 (kynurenine-3-hydroxylase [2]): 2.8 µM

Structure (SMILES): O=C(O)/C(O)=C\C(=O)c1ccc(Cl)c(Cl)c1 [PNU 158776, (E)-2-hydroxy-4-(3',4'-dichlorophenyl)-4-oxo-2-butenoic acid]
- IC50 (kynurenine-3-hydroxylase [3]): 0.3 µM
- IC50 (kynurenine-3-hydroxylase [2]): 1.8 µM

Structure (SMILES): O=C(O)/C=C/C(=O)c1cccc([N+](=O)[O-])c1 [PNU 158389, (E)-4-(3'-nitrophenyl)-4-oxo-2-butenoic acid]
- IC50 (kynurenine-3-hydroxylase [3]): 16.6 µM
- IC50 (kynurenine-3-hydroxylase [2]): 30.4 µM

Structure (SMILES): O=C(O)/C(O)=C\C(=O)c1ccc(Cl)cc1 [PNU 166909, (E)-2-hydroxy-4-(4'-chlorophenyl)-4-oxo-2-butenoic acid]
- IC50 (kynurenine-3-hydroxylase [2]): 8.9 µM

Structure (SMILES): O=C(O)C=C(Cc1ccccc1)C(=O)c1ccc(Cl)c(Cl)c1 [PNU 167535, 3-benzyl-4-(3',4'-dichlorophenyl)-4-oxo-2-butenoic acid]
- IC50 (kynurenine-3-hydroxylase [2]): 12.3 µM

Structure (SMILES): COC(=O)/C(O)=C\C(=O)c1ccc(Cl)c(Cl)c1 [PNU 158775, Methyl-(E)-2-hydroxy-4-(3',4'-dichlorophenyl)-4-oxo-2-butenoate]
- IC50 (kynurenine-3-hydroxylase [3]): 0.95 µM
- IC50 (kynurenine-3-hydroxylase [2]): 6.9 µM

Structure (SMILES): O=C(O)/C=C/C(=O)c1cccc(Cl)c1 [PNU 158390, (E)-4-(3'-chlorophenyl)-4-oxo-2-butenoic acid]
- IC50 (kynurenine-3-hydroxylase [3]): 20.4 µM
- IC50 (kynurenine-3-hydroxylase [2]): 21.9 µM

Structure (SMILES): O=C(O)/C(O)=C\C(=O)c1cccc(Cl)c1 [PNU 161216, (E)-2-hydroxy-4-(3'-chlorophenyl)-4-oxo-2-butenoic acid]
- IC50 (kynurenine-3-hydroxylase [3]): 6.9 µM
- IC50 (kynurenine-3-hydroxylase [2]): 1.2 µM

Structure (SMILES): O=C(O)/C=C/C(=O)c1ccc(Cl)c(Cl)c1 [PNU 157694, (E)-4-(3',4'-dichlorophenyl)-4-oxo-2-butenoic acid]
- IC50 (kynurenine-3-hydroxylase [3]): 0.9 µM
- IC50 (kynurenine-3-hydroxylase [2]): 10.4 µM

Structure (SMILES): O=C(O)c1cc(=O)c2ccccc2[nH]1 [KYNA, kynurenic acid]
- activity at ionotropic excitatory aminoacid receptors [4]: broad spectrum antagonist
- prevention of excitotoxic neuronal damage evoked by QUIN (CNS; co-injected with QUIN): able to prevent the excitotoxic neuronal damage
- effect when injected in the CNS (CNS): neuroprotective agent
- anticonvulsant and neuroprotective properties (CNS; several animal models): anticonvulsant and neuroprotective properties
